We go through three molecules from publication doi:10.1101/2025.10.13.682046v1 (biorxiv, 2025).

Structures are written as SMILES.

Broadly, the Kd is the free concentration of one partner at which half of the binding sites on the other are occupied at equilibrium, for simple one-to-one binding. A low value points to higher affinity.

The target of this test is CIP2A(1-560) (Homo sapiens, UniProt Q8TCG1). The test is described as follows: microscale thermophoresis. It counts as binding. (In general: MST reads how a fluorescent partner responds to local heating, with and without ligand.)
For the molecule `CC(C)=CCC[C@]1(C)C=Cc2c(O)c3c(c(CC=C(C)C)c2O1)O[C@]12C(=C[C@@H]4C[C@H]1C(C)(C)O[C@@]2(C/C=C(/C)C(=O)N1CCOCC1)C4=O)C3=O` [DAP-19], binding was characterised by a dissociation constant (Kd) of 8.4 µM.

Take `CC(C)=CCC[C@]1(C)C=Cc2c(O)c3c(c(CC=C(C)C)c2O1)O[C@]12C(=C[C@@H]4C[C@H]1C(C)(C)O[C@@]2(C/C=C(/C)C(=O)O)C4=O)C3=O` [GIA, Gambogic acid]: the affinity, expressed as Kd, was 4.6 µM.

`CC(C)=CCC/C(C)=C/Cc1c(O)c(CC=C(C)C)c2c(c1O)C(=O)C1=C[C@@H]3C[C@H]4C(C)(C)O[C@@](C/C=C(/C)C(=O)NCCCCCNC(=O)CCCC[C@@H]5SC[C@@H]6NC(=O)N[C@@H]65)(C3=O)[C@@]14O2` [bGNA, biotinylated gambogenic acid]: the dissociation constant (Kd) was 4.2 µM.
